How the values were obtained:
Assay type in all cases: physicochemical
[1] = Stability with regard to steam autoclaving: viscosity of non-crosslinked hyaluronic acid compositions (rheometer)
Protocol: For the compositions according to the invention comprising non-crosslinked hyaluronic acid, the viscosity η of the sterilized compositions after the steam autoclaving step is characterized on a TA Instruments AR 2000 Ex rheometer, under controlled constraint conditions, at 25° C. The viscosity value is recorded at a constraint of 0.02 s^−1.
(§1) For the compositions comprising non-crosslinked hyaluronic acid, the percentage of loss in the viscosity is the value of the difference in the viscosity of the reference composition after steam autoclaving and the viscosity of the composition comprising non-crosslinked hyaluronic acid and a sulphated oligo-polysaccharide or a sulphated monosaccharide after steam autoclaving over the value of the viscosity of the reference composition after steam autoclaving.
(§2) For these all measurements, a reference composition is formulated, the aqueous solution of sulphated oligo-polysaccharide or of sulphated monosaccharide being replaced by the same amount of aqueous solution of phosphate buffer.
Nine compositions comprising non-crosslinked hyaluronic acid and a sulphated oligo-polysaccharide or a sulphated monosaccharide at a concentration of 1 mg/g in the composition are prepared according to the procedure described in Example 1.
A reference composition is also formulated, the aqueous solution of sulphated oligo-polysaccharide or of sulphated monosaccharide being replaced by the same amount of aqueous solution of phosphate buffer.
A series of five compositions comprising non-crosslinked hyaluronic acid, mannitol and a sulphated oligo-polysaccharide or a sulphated monosaccharide at a concentration of 1 mg/g in the composition is prepared according to the procedure described in Example 3.
Examples of tests on formulations of KSOS (at different concentrations) with a non-crosslinked gel of Example 1 at the concentrations and ratios described in Table 7 below.
The gels are sterilized and then characterized by rheology according to Example 8.

[2] = Stability with regard to steam autoclaving: elastic component G′ of crosslinked hyaluronic acid compositions (rheometer)
Protocol: For the compositions according to the invention comprising crosslinked hyaluronic acid, the elastic component G′ of the sterilized compositions after the autoclaving step is characterized on a TA Instruments AR 2000 Ex rheometer, under oscillation conditions, at 25° C., the values of the elastic component being recorded at a frequency of 1 Hz.
as §1, with “crosslinked” for “non-crosslinked”, “elastic component G′” for “viscosity”
as §2
A series of four compositions comprising crosslinked hyaluronic acid, mannitol and a sulphated oligo-polysaccharide or a sulphated monosaccharide at a concentration of 1 mg/g in the composition is prepared according to the procedure described in Example 4.
A reference composition is also formulated, the aqueous solution of sulphated oligo-polysaccharide or of sulphated monosaccharide being replaced by an equivalent amount of aqueous solution of phosphate buffer.
Examples of tests on formulations of KSOS (at different concentrations) with a 20 mg/g crosslinked NaHA gel (IPN-like gel, sold under the Stylage® M brand), which is the reference gel.
The gels are sterilized and then characterized.
The percentage of loss in the elastic component G′ with respect to the reference composition is measured according to Example 8 and the difference between the injectability force, through 30-gauge ½ hypodermic needles, of the reference gel and of the gels comprising potassium sucrose octasulphate is measured.
Example of test on formulation of KSOS with a gel comprising crosslinked hyaluronic acid at the concentration and at the ratio described in Table 8 below.
The gels are prepared according to the procedure described in Example 2 and are then characterized by rheology according to Example 8.

[3] = Solubility of salts of sucrose octasulphate
[4] = after steam autoclaving, non-crosslinked hyaluronic acid + mannitol + sulphated saccharide at 1 mg/g (procedure of Example 3)
[5] = after steam autoclaving, non-crosslinked hyaluronic acid + sulphated saccharide at 1 mg/g (procedure of Example 1), viscosity at 25° C., 0.02 s^−1
[6] = after steam autoclaving, crosslinked hyaluronic acid + mannitol + sulphated saccharide at 1 mg/g (procedure of Example 4), 25° C., 1 Hz

Row | Compound | % of loss in the viscosity with respect to the reference composition [1, 4] [%] | % of loss in the viscosity with respect to the reference composition [1, 5] [%] | % of loss in the elastic component G′ with respect to the reference composition [2, 6] [%] | also measured
1 | O=S(=O)(O)N[C@H]1C(O)O[C@H](CO)[C@@H](O)[C@@H]1O (stereo partly drawn) [D-Glucosamine-2-sulphate, reference compound] | 25 | 87 | 18 | –
2 | N[C@H]1C(O)O[C@H](COS(=O)(=O)O)[C@@H](O)[C@@H]1O (stereo partly drawn) [D-Glucosamine-6-sulphate, reference compound] | 90 | 98 | 74 | –
3 | CC(=O)N[C@H]1C(O)O[C@H](COS(=O)(=O)O)[C@@H](O)[C@@H]1O (stereo partly drawn) [N-Acetyl-D-glucosamine-6-sulphate, reference compound] | 60 | 96 | 32 | –
4 | Potassium sucrose octasulphate | 0 | 0 | 0 | % of loss in the viscosity with respect to the reference composition ([1]; after autoclaving, non-crosslinked NaHA 4 mg/g, KSOS 40 mg/g, [HA]/[SOS] 0.1): 0%; % of loss in the viscosity with respect to the reference composition ([1]; after autoclaving, non-crosslinked NaHA 10 mg/g, KSOS 10 mg/g, [HA]/[SOS] 1): 0%; % of loss in the viscosity with respect to the reference composition ([1]; after autoclaving, non-crosslinked NaHA 10 mg/g, KSOS 20 mg/g, [HA]/[SOS] 0.5): 0%; % of loss in the viscosity with respect to the reference composition ([1]; after autoclaving, non-crosslinked NaHA 20 mg/g, KSOS 10 mg/g, [HA]/[SOS] 2): 0%; % of loss in the viscosity with respect to the reference composition ([1]; after autoclaving, non-crosslinked NaHA 20 mg/g, KSOS 20 mg/g, [HA]/[SOS] 1): 0%; % of loss in the viscosity with respect to the reference composition ([1]; after autoclaving, non-crosslinked NaHA 25 mg/g, KSOS 0.01 mg/g, [HA]/[SOS] 2500): 0%; % of loss in the viscosity with respect to the reference composition ([1]; after autoclaving, non-crosslinked NaHA 25 mg/g, KSOS 0.05 mg/g, [HA]/[SOS] 500): 0%; % of loss in the elastic component G′ with respect to the reference composition ([2]; after autoclaving, crosslinked NaHA 10.3 mg/g, KSOS 25 mg/g, [HA]/[SOS] 0.4 (procedure of Example 2)): 0%; % of loss in the elastic component G′ with respect to the reference composition ([2]; after steam autoclaving, crosslinked hyaluronic acid + mannitol + sulphated saccharide at 1 mg/g (procedure of Example 4), 25° C., 1 Hz, listed as potassium sucrose octasulphate): no loss; maximum solubility [3]: 40 mg/g

More lines, main results first:

Row | % of loss in the viscosity with respect to the reference composition [1, 4] [%] | % of loss in the viscosity with respect to the reference composition [1, 5] [%] | % of loss in the elastic component G′ with respect to the reference composition [2, 6] [%] | Compound | also measured
5 | 0 | 0 | – | O=S(=O)([O-])OC[C@H]1O[C@@](COS(=O)(=O)[O-])(O[C@H]2O[C@H](COS(=O)(=O)[O-])[C@@H](OS(=O)(=O)[O-])[C@H](OS(=O)(=O)[O-])[C@H]2OS(=O)(=O)[O-])[C@@H](OS(=O)(=O)[O-])[C@@H]1OS(=O)(=O)[O-].[Na+].[Na+].[Na+].[Na+].[Na+].[Na+].[Na+].[Na+] [Sodium sucrose octasulphate] | solubility compared with the potassium salt [3]: greater than that of the potassium salt
6 | – | 62 | – | Chondroitin sulphate [reference compound] | –
7 | – | 16 | – | Dextran sulphate(40000) [reference compound] | –
8 | – | 94 | – | Disulphated carrageenan(disaccharide) [reference compound] | –
9 | – | 92 | – | Hexasulphated carrageenan(hexasaccharide) [reference compound] | –

— patent US9314530B2, “Composition, in aqueous medium, that comprises at least a hyaluronic acid and at least an hydrosoluble salt of sucrose octasulfate” (LABORATOIRES VIVACY, priority 2012, dated 2016)
